This note sets out measurements from patent publication US20240174618A1, “SUBSTITUTED (2-HETEROARYLOXYPHENYL)SULFONATES, SALTS THEREOF AND THEIR USE AS HERBICIDAL AGENTS” (Bayer Aktiengesellschaft, priority 2021, published 2024).

Holding throughout (format): in vivo
In data set [1] the test system is Veronica persica (VERPE). Description: E. Herbicidal post-emergence efficacy, VERPE. An outline of the steps: (§1)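 Greenhouse weeds were treated post-emergence at the one-leaf stage, 2-3 weeks after sowing in sandy loam, with WP or EC formulations sprayed as aqueous suspension/emulsion plus 0.5% additive at 600 l/ha, at 320 g/ha or less. Efficacy was rated visually after about 3 weeks versus untreated controls (100% = dead, 0% = like control).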

The test system of data set [2] is Veronica persica (VERPE). The experiment in a line: B. Herbicidal post-emergence efficacy, VERPE. The gist of the method: (§2)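 Post-emergence foliar spray, at application rates of 1280 g/ha or less, on one-leaf-stage plants 2–3 weeks post-sowing, using aqueous WP or EC suspensions with 0.5% additive at 600 L/ha. Visual percent efficacy relative to untreated plants scored roughly 3 weeks later in the greenhouse.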

Data set [3] has as its system Setaria viridis (SETVI). Description: C. Herbicidal pre-emergence efficacy, SETVI. The conditions noted are these: scored after about 3 weeks. An outline of the steps: (§3)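 Pre-emergence test: formulated compounds sprayed as aqueous suspension or emulsion with 0.5% additive at 600 l/ha onto soil covering sown seeds, at rates corresponding to 320 g/ha or less. After about 3 weeks in greenhouse, efficacy scored visually as percent versus untreated controls (100% = plants dead).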

For data set [4], the system named is Echinochloa crus-galli (ECHCG). Description: C. Herbicidal pre-emergence efficacy, ECHCG. The conditions noted are these: scored after about 3 weeks. An outline of the steps:
as §3

Data set [5] has as its system Echinochloa crus-galli (ECHCG). Description: A. Herbicidal pre-emergence efficacy, ECHCG. The conditions noted are these: scored visually after about 3 weeks vs untreated controls. An outline of the steps: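 Pre-emergence soil-surface spray in sandy loam pots, WP/EC in water plus 0.5% additive, 600 L/ha. Visual % damage rating after about 3 weeks in greenhouse vs. untreated; 0% = control-like, 100% = dead plants. Rates up to 1280 g/ha.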

Data set [6] concerns Polygonum convolvulus (POLCO). The experiment in a line: E. Herbicidal post-emergence efficacy, POLCO. An outline of the steps: as §1
Data set [7] relates to Triticum aestivum (TRZAS). The experiment in a line: F. Post-emergence effect on useful plants, TRZAS. The conditions noted are these: useful plant. The gist of the method:
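Crop plants grown in sandy loam in the greenhouse were sprayed at the one-leaf stage, 2-3 weeks after sowing, with WP or EC formulations plus 0.5% additive at 600 l/ha water. Damage was scored visually after about 3 weeks against untreated controls (0% = like control, 100% = dead).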

For data set [8], the system named is Abutilon theophrasti (ABUTH). The experiment in a line: B. Herbicidal post-emergence efficacy, ABUTH. The conditions noted are these: rated visually after about 3 weeks. The gist of the method: as §2

The structures appear in SMILES notation.

Take `O=S(=O)(CCC(F)(F)F)Oc1c(Cl)cccc1Oc1ncc(Cl)cn1` [Example I-38]: the “Post-emergence efficacy against VERPE in %” value in data set [1] (application rate 80 g/ha) and in data set [1] (application rate 320 g/ha) was 100% throughout. Moreover, the “Post-emergence efficacy against VERPE” value in data set [2] (80 g/ha), in data set [2] (320 g/ha) and in data set [2] (1280 g/ha) was 90% each time. Moreover, the “Pre-emergence efficacy against SETVI” value in data set [3] (80 g/ha) and in data set [3] (320 g/ha) was 100% in each case. Also, the “Pre-emergence efficacy against ECHCG” value in data set [4] (80 g/ha) came out at 100%; in data set [4] (320 g/ha) it was 100%; in data set [5] (320 g/ha), 90%; in data set [5] (1280 g/ha), 100%. The “Post-emergence efficacy against POLCO in %” value in data set [6] (application rate 80 g/ha) and in data set [6] (application rate 320 g/ha) was 100% each time. The “Post-emergence efficacy against TRZAS in %” value in data set [7] (application rate 80 g/ha) is 10%; in data set [7] (application rate 320 g/ha) it was 20%.

In the case of `O=S(=O)(CCC(F)(F)F)Oc1c(F)cccc1Oc1ncc(Br)cn1` [Example I-40], the “Post-emergence efficacy against VERPE in %” value in data set [1] (application rate 80 g/ha) and in data set [1] (application rate 320 g/ha) was 100% in each case. In addition, the “Post-emergence efficacy against VERPE” value in data set [2] (80 g/ha), in data set [2] (320 g/ha) and in data set [2] (1280 g/ha) was 90% each time. The “Pre-emergence efficacy against SETVI” value in data set [3] (80 g/ha) and in data set [3] (320 g/ha) was 100% each time. Moreover, the “Pre-emergence efficacy against ECHCG” value in data set [4] (80 g/ha), in data set [4] (320 g/ha), in data set [5] (80 g/ha), in data set [5] (320 g/ha) and in data set [5] (1280 g/ha) was 100% each time. Moreover, the “Post-emergence efficacy against POLCO in %” value in data set [6] (application rate 80 g/ha) and in data set [6] (application rate 320 g/ha) was 100% in each case. Besides, the “Post-emergence efficacy against TRZAS in %” value in data set [7] (application rate 80 g/ha) is given as 10%; in data set [7] (application rate 320 g/ha), 20%.

For `O=S(=O)(CCCC(F)(F)F)Oc1c(F)cccc1Oc1ncc(Br)cn1` [Example I-41], the “Post-emergence efficacy against VERPE in %” value in data set [1] (application rate 80 g/ha) and in data set [1] (application rate 320 g/ha) was 100% throughout. Besides, the “Post-emergence efficacy against VERPE” value in data set [2] (80 g/ha), in data set [2] (320 g/ha) and in data set [2] (1280 g/ha) was 90% in each case. The “Pre-emergence efficacy against SETVI” value in data set [3] (80 g/ha) and in data set [3] (320 g/ha) was 100% each time. In addition, the “Pre-emergence efficacy against ECHCG” value in data set [4] (80 g/ha), in data set [4] (320 g/ha), in data set [5] (320 g/ha) and in data set [5] (1280 g/ha) was 100% in each case. Also, the “Post-emergence efficacy against POLCO in %” value in data set [6] (application rate 80 g/ha) and in data set [6] (application rate 320 g/ha) was 100% in each case. Also, in data set [7] (application rate 80 g/ha), the “Post-emergence efficacy against TRZAS in %” value is 0%.

For `O=S(=O)(CC1CC(F)(F)C1)Oc1c(F)cccc1Oc1ncc(Cl)cn1` [Example I-53], the “Post-emergence efficacy against VERPE in %” value in data set [1] (application rate 80 g/ha) and in data set [1] (application rate 320 g/ha) was 100% in each case. For the same compound, the “Post-emergence efficacy against VERPE” value in data set [2] (80 g/ha), in data set [2] (320 g/ha) and in data set [2] (1280 g/ha) was 90% each time. Moreover, the “Pre-emergence efficacy against SETVI” value in data set [3] (80 g/ha) and in data set [3] (320 g/ha) was 100% throughout. The “Pre-emergence efficacy against ECHCG” value in data set [4] (80 g/ha), in data set [4] (320 g/ha), in data set [5] (80 g/ha), in data set [5] (320 g/ha) and in data set [5] (1280 g/ha) was 100% throughout. The “Post-emergence efficacy against ABUTH in %” value in data set [8] (80 g/ha), in data set [8] (320 g/ha) and in data set [8] (1280 g/ha) was 90% each time. Moreover, the “Post-emergence efficacy against POLCO in %” value in data set [6] (application rate 80 g/ha) and in data set [6] (application rate 320 g/ha) was 100% throughout.

As for `O=S(=O)(CCC(F)=C(F)F)Oc1c(F)cccc1Oc1ncc(Cl)cn1` [Example I-70], the “Post-emergence efficacy against VERPE in %” value in data set [1] (application rate 80 g/ha) and in data set [1] (application rate 320 g/ha) was 100% in each case. Moreover, the “Pre-emergence efficacy against SETVI” value stood at 90% in data set [3] (80 g/ha) and 100% in data set [3] (320 g/ha). Moreover, the results for the “Pre-emergence efficacy against ECHCG” value in data set [4] (80 g/ha) and in data set [4] (320 g/ha) were 90% and 100%, respectively. Moreover, the “Post-emergence efficacy against POLCO in %” value in data set [6] (application rate 320 g/ha) is listed as 100%. Moreover, the “Post-emergence efficacy against TRZAS in %” value in data set [7] (application rate 80 g/ha) was determined as 20%.

In the case of `N#Cc1cccc(Oc2ncc(Cl)cn2)c1OS(=O)(=O)CCCC(F)(F)F` [Example I-81], the “Post-emergence efficacy against VERPE in %” value in data set [1] (application rate 80 g/ha) and in data set [1] (application rate 320 g/ha) was 100% throughout. The “Pre-emergence efficacy against SETVI” value in data set [3] (80 g/ha) and in data set [3] (320 g/ha) was 100% each time. The “Pre-emergence efficacy against ECHCG” value in data set [4] (320 g/ha) turned out to be 100%. The “Post-emergence efficacy against POLCO in %” value worked out at 90% in data set [6] (application rate 80 g/ha) and 100% in data set [6] (application rate 320 g/ha). The “Post-emergence efficacy against TRZAS in %” value in data set [7] (application rate 80 g/ha) was 0%.
